In brackets after ≈: the same amount, converted by molar mass.

For orientation: kinetic solubility means the concentration staying in solution when a stock, usually in DMSO, is diluted into the medium.

The conditions of this data set: buffer; pH 7.4; 200.0 µM.
Turning to `O=C(OCc1csc(-c2ccccc2)n1)c1ccccc1O`, the solubility (kinetic) is < 0.7 µg/mL. Compound `COc1ccc(C(=O)OCC(=O)c2ccc3c(c2)NC(=O)CO3)cc1[N+](=O)[O-]` had a solubility (kinetic) of 2.7 µg/mL (≈ 6.99 µM).

Turning to `CCOc1cc(C(=O)NCc2ccco2)cc(OCC)c1OCC`, the kinetic solubility stood at 49.7 µg/mL (≈ 149 µM). `CC(C)CN1CCC(CN(C)Cc2nc(-c3cnccn3)no2)CC1` showed a kinetic solubility of 45.2 µg/mL (≈ 131 µM). For the compound `CC(=O)NCC1COc2ccccc2O1` (stereo unspecified), the solubility (kinetic) was > 31.1 µg/mL. The compound `CN1CCN(C(=O)C2CCC(C)(C(=O)O)C2(C)C)CC1` (stereo unspecified) came in with a kinetic solubility of 40.5 µg/mL (≈ 143 µM). Consider `COc1ccc(CNC(=O)c2coc(=O)c3ccccc23)cc1`, for which the solubility (kinetic) was 30.8 µg/mL (≈ 99.6 µM). In the case of `CCNC(=S)N1CCCC(c2nc3ccc(C)cc3[nH]2)C1` (stereo unspecified) it was > 45.4 µg/mL; in that of `O=C(NS(=O)(=O)c1ccc(Cl)cc1)c1ccccc1`, 26.7 µg/mL (≈ 90.3 µM). The same measure for `COCC(C)NC(=O)c1ccc2nc(-c3ccccc3)c(-c3ccccc3)nc2c1` (stereo unspecified): 5.3 µg/mL (≈ 13.3 µM). The compound `COc1ccccc1NC(=O)c1ccc(COc2ccccc2OC)cc1` returned a kinetic solubility of 3.1 µg/mL (≈ 8.53 µM). The same measure for `N#C/C(=C\c1cccnc1)C(=O)Nc1ccc(SC(F)F)cc1`: 8 µg/mL (≈ 24.1 µM); for `Cc1ccc(Nc2nc(N)nc(CCl)n2)cc1`: > 37.5 µg/mL; for `Cc1nc([N+](=O)[O-])c(SCC(N)=O)n1Cc1ccccc1`: > 46 µg/mL.

With `Cc1ccc(C(=O)CCC(=O)NCc2ccccc2)cc1`, the kinetic solubility is 16.9 µg/mL (≈ 60.1 µM). For the compound `O=C(NC1CC(=O)N(c2ccccc2)C1)C1CC1` (stereo unspecified), the solubility (kinetic) was > 36.6 µg/mL. The compound `Cc1cc(C)c2oc(C(=O)NCc3ccccc3)cc(=O)c2c1` displayed a kinetic solubility of 2.3 µg/mL (≈ 7.48 µM). Regarding `COC(OC)c1ccnc(-c2ccc(OC(C)=O)cc2)n1`, the solubility (kinetic) was > 43.2 µg/mL.

In the case of `O=S(=O)(c1ccccc1)N1CCNCC1`, the solubility (kinetic) amounted to 26.6 µg/mL (≈ 118 µM). With `CC(=O)Nc1cc2nc(C)n(Cc3ccc([N+](=O)[O-])cc3)c2nc1C`, the solubility (kinetic) is > 50.9 µg/mL.

Compound `CNCCc1ccc(O)c(O)c1.Cl` came in with a solubility (kinetic) of 17.2 µg/mL. In the case of `O=C(c1cc(Br)c[nH]1)N1CCSCC1` it was 29.6 µg/mL (≈ 108 µM).

Regarding `Nc1ncnc2c1ncn2CCc1ccccc1`, the solubility (kinetic) was > 35.9 µg/mL. With `O=C(COC(=O)c1cccc(F)c1)Nc1cccnc1Cl`, the solubility (kinetic) was determined as 41.7 µg/mL (≈ 135 µM). In the case of `CC(=O)NCCCNS(=O)(=O)c1ccc(C)cc1` it was 32.2 µg/mL (≈ 119 µM); in that of `COc1ccc(S(=O)(=O)Nc2cc(S(=O)(=O)N3CCOCC3)ccc2OC)cc1`, 37.3 µg/mL (≈ 84.3 µM). Consider `Oc1ccc(CCC2CCCCN2Cc2nc(C3CC3)no2)cc1` (stereo unspecified), for which the kinetic solubility was > 49.1 µg/mL.

As for `O=C(NCCN1CCN(c2ccc([N+](=O)[O-])cc2)CC1)NCc1ccccc1`, the kinetic solubility was > 57.5 µg/mL.

As for `Cc1ccccc1-c1noc(C(C)NC(=O)c2ccco2)n1` (stereo unspecified), the solubility (kinetic) came out at 37.5 µg/mL (≈ 126 µM). In the case of `O=C(Nc1ncccn1)C1CCCCC1` it was > 30.8 µg/mL. Turning to `CC(=O)N(c1ccc(C)cc1)c1nc(C)cc(C)c1C#N`, the kinetic solubility was > 41.9 µg/mL. The same measure for `Cc1nc(C)n(CC(=O)c2ccc(Cl)cc2Cl)n1`: > 42.6 µg/mL; for `Cc1cc(C)nc(NC(=O)CSc2ncccn2)n1`: > 41.3 µg/mL; for `O=C(COC(=O)CCC(=O)c1ccc(Cl)cc1)NCCc1ccccc1`: 5.7 µg/mL (≈ 15.2 µM). Compound `Cc1cc(C)cc(C(=O)Nc2cc3c4c(c2)CC(=O)N4CCC3)c1` showed a kinetic solubility of 1.2 µg/mL (≈ 3.75 µM). As for `Cc1cc(CNC(=S)Nc2cccc(Cl)c2Cl)nn1C`, the solubility (kinetic) was > 49.4 µg/mL. `CC(NC(=O)COC(=O)c1nc(Cl)ccc1Cl)c1ccccc1` (stereo unspecified): the kinetic solubility was > 53 µg/mL. `C=CCn1cc(/C=C2\SC(N3CCOCC3)=NC2=O)c2ccccc21` came in with a solubility (kinetic) of 9.5 µg/mL (≈ 26.9 µM).

Regarding `CN(CC(=O)NCc1cccnc1)S(=O)(=O)c1ccc(F)cc1`, the kinetic solubility is > 50.6 µg/mL. As for `CCN(CC)C(=O)C1CCCN(c2ccc([N+](=O)[O-])cc2)C1` (stereo unspecified), the kinetic solubility was > 45.8 µg/mL. In the case of `CC(C1CC1)N(Cc1ccccc1)C(=S)Nc1ccccc1Cl` (stereo unspecified) it was 1.1 µg/mL (≈ 3.19 µM); in that of `O=C(COC(=O)/C=C/c1ccccc1[N+](=O)[O-])NCc1ccco1`, 18.7 µg/mL (≈ 56.6 µM); in that of `Cc1ccc(OCC(=O)NC2CCCCCC2)cc1C`, 3.4 µg/mL (≈ 12.3 µM). With `CC1CCC(NC(=O)CN2C(=O)NC(C)(C)C2=O)CC1` (stereo unspecified), the solubility (kinetic) was > 42.2 µg/mL. In the case of `Cc1ccc(N2CC(C(=O)NCCN3CCOCC3)CC2=O)cc1C` (stereo unspecified) it was > 51.8 µg/mL. On to `Cc1cc2nc(C)c3c(n2n1)CCC3`, for which the kinetic solubility is > 28.1 µg/mL. Consider `CCN(c1ccccc1)S(=O)(=O)c1ccc(C(=O)N2CCN(c3ccccc3)CC2)cc1`, for which the solubility (kinetic) was 7 µg/mL (≈ 15.6 µM).

With `O=C(NCCC1=CCCCC1)C1CCN(C(=O)Cc2ccccc2)CC1`, the solubility (kinetic) was > 53.2 µg/mL. As to `O=C(COC(=O)COc1cccc(Br)c1)NCc1ccc2c(c1)OCO2`, the kinetic solubility was 32.6 µg/mL (≈ 77.2 µM). With `CCCCCCC(=O)c1c([O-])n(-c2ccc(OC)cc2)c(=O)[nH]c1=O.C[NH+](C)C`, the kinetic solubility was 44.5 µg/mL.

`COc1ccc(S(=O)(=O)N2CCOCC2)cc1NC(=O)COC(=O)c1ccc([N+](=O)[O-])s1` gave a kinetic solubility of 14 µg/mL (≈ 28.8 µM).

The values above are taken from PubChem BioAssay AID1996.
